Laboratory results: US20050208139A1 (Ascend Therapeutics, Inc., priority 2004, published 2005)

How the values were obtained:
[1] = Isomerization of 4-hydroxy tamoxifen in hydroalcoholic solutions at 25°, 30° and 40° C., Z/E isomers by HPLC (Example 1); type: physicochemical
Method: Hydroalcoholic solutions containing 4-hydroxy tamoxifen were prepared, based on the following gel formula: […]
In the hydroalcoholic solutions, phosphate buffer was substituted for Klucel. The composition of the buffer was as follows:
At each of the stated concentrations, separate solutions containing Z-4-hydroxy tamoxifen or a mixture of Z- and E-4-hydroxy tamoxifen were prepared.
Each solution was subdivided into three parts in 30 ml brown glass bottles, then placed in ovens regulated at 25°, 30°, and 40° C.
The relative amounts of Z- and E-4-hydroxy tamoxifen isomers were determined at the initiation of the study and at 2-week, 1-month, 2-month, 3-month, 4-month and 5-month time points.
Operating parameters for the HPLC were as follows:
The order of elution was as follows: • 4-OHT E: retention time about 13.3 min • 4-OHT Z: retention time about 15.0 min.
Percentages of each isomer were calculated using the following formulas: [formula] [formula] D. Data fitting:
The reversible isomerization reaction and the equilibrium reaches are lied by the following relationship: [formula] where • A0=initial concentration of the reagent • Aeq=concentration of the same reagent at equilibrium • A=the concentration of A at time t • kf=forward rate constant • kr=reverse rate constant • t=time measured in months
A plot of log [formula] as a function of time gives a straight line fit with a slope of [formula] and a y-intercept of 0. E. Results

[2] = Effects of isopropyl myristate, nature of the alcohol and alcohol/phosphate buffer ratio on isomerization (Example 2); type: physicochemical
Description: The initial E/Z ratio was 63%/37%. • Reference solution: Gel formulation without the gelling agent KLUCEL • Solution II: Reference solution without Isopropyl myristate and containing ethanol • Solution III: Solution II with the ethanol replaced by Isopropyl alcohol • Solution IV: Solution II with the ethanol/buffer ratio of 50/50 instead of 66.5/33.5

[3] = Effects of pH on isomerization at 40° C. (Example 5); type: physicochemical
[4] = tested on: normal and cancerous breast cells; conditions: in vitro; cited from earlier work
[5] = cited from earlier work
[6] = Initial E/Z 37/63, Buffer pH 2.2, Final pH 4, Day
[7] = Initial E/Z 37/63, Buffer pH 2.2, Final pH 4, Day 8
[8] = Initial E/Z 37/63, Buffer pH 2.2, Final pH 4, Mo. 1
[9] = Initial E/Z 37/63, Buffer pH 2.2, Final pH 4, Mo. 2
[10] = Initial E/Z 37/63, Buffer pH 2.2, Final pH 4, Mo. 3
[11] = Initial E/Z 37/63, Buffer pH 4, Final pH 6, Day
[12] = Initial E/Z 37/63, Buffer pH 4, Final pH 6, Day 8
[13] = Initial E/Z 37/63, Buffer pH 4, Final pH 6, Mo. 1
[14] = Initial E/Z 37/63, Buffer pH 4, Final pH 6, Mo. 2
[15] = Initial E/Z 37/63, Buffer pH 4, Final pH 6, Mo. 3
[16] = Initial E/Z 37/63, Buffer pH 4, Final pH 6, Time 0
[17] = Initial E/Z 37/63, Buffer pH 6, Final pH 7, Day
[18] = Initial E/Z 37/63, Buffer pH 6, Final pH 7, Day 8
[19] = Initial E/Z 37/63, Buffer pH 6, Final pH 7, Mo. 1
[20] = Initial E/Z 37/63, Buffer pH 6, Final pH 7, Mo. 2
[21] = Initial E/Z 37/63, Buffer pH 6, Final pH 7, Mo. 3
[22] = Initial E/Z 37/63, Buffer pH 6, Final pH 7, Time 0
[23] = Initial E/Z 37/63, Buffer pH 8, Final pH 9, Day
[24] = Initial E/Z 37/63, Buffer pH 8, Final pH 9, Day 8
[25] = Initial E/Z 37/63, Buffer pH 8, Final pH 9, Mo. 1
[26] = Initial E/Z 37/63, Buffer pH 8, Final pH 9, Mo. 2
[27] = Initial E/Z 37/63, Buffer pH 8, Final pH 9, Mo. 3
[28] = Initial E/Z 37/63, Buffer pH 8, Final pH 9, Time 0
[29] = Initial E/Z 37/63, Buffer pH 10, Final pH 12, Day
[30] = Initial E/Z 37/63, Buffer pH 10, Final pH 12, Day 8
[31] = Initial E/Z 37/63, Buffer pH 10, Final pH 12, Mo. 1
[32] = Initial E/Z 37/63, Buffer pH 10, Final pH 12, Mo. 2
[33] = Initial E/Z 37/63, Buffer pH 10, Final pH 12, Mo. 3
[34] = Initial E/Z 37/63, Buffer pH 10, Final pH 12, Time 0
[35] = Initial E/Z 100/0, Buffer pH 2.2, Final pH 4, Day
[36] = Initial E/Z 100/0, Buffer pH 2.2, Final pH 4, Day 8
[37] = Initial E/Z 100/0, Buffer pH 2.2, Final pH 4, Mo. 1
[38] = Initial E/Z 100/0, Buffer pH 2.2, Final pH 4, Mo. 2
[39] = Initial E/Z 100/0, Buffer pH 2.2, Final pH 4, Mo. 3
[40] = Initial E/Z 100/0, Buffer pH 4, Final pH 6, Day
[41] = Initial E/Z 100/0, Buffer pH 4, Final pH 6, Day 8
[42] = Initial E/Z 100/0, Buffer pH 4, Final pH 6, Mo. 1
[43] = Initial E/Z 100/0, Buffer pH 4, Final pH 6, Mo. 2
[44] = Initial E/Z 100/0, Buffer pH 4, Final pH 6, Mo. 3
[45] = Initial E/Z 100/0, Buffer pH 4, Final pH 6, Time 0
[46] = Initial E/Z 100/0, Buffer pH 6, Final pH 7, Day
[47] = Initial E/Z 100/0, Buffer pH 6, Final pH 7, Day 8
[48] = Initial E/Z 100/0, Buffer pH 6, Final pH 7, Mo. 1
[49] = Initial E/Z 100/0, Buffer pH 6, Final pH 7, Mo. 2
[50] = Initial E/Z 100/0, Buffer pH 6, Final pH 7, Mo. 3
[51] = Initial E/Z 100/0, Buffer pH 6, Final pH 7, Time 0
[52] = Initial E/Z 100/0, Buffer pH 8, Final pH 9, Day
[53] = Initial E/Z 100/0, Buffer pH 8, Final pH 9, Day 8
[54] = Initial E/Z 100/0, Buffer pH 8, Final pH 9, Mo. 1
[55] = Initial E/Z 100/0, Buffer pH 8, Final pH 9, Mo. 2
[56] = Initial E/Z 100/0, Buffer pH 8, Final pH 9, Mo. 3
[57] = Initial E/Z 100/0, Buffer pH 8, Final pH 9, Time 0
[58] = Initial E/Z 100/0, Buffer pH 10, Final pH 12, Day
[59] = Initial E/Z 100/0, Buffer pH 10, Final pH 12, Day 8
[60] = Initial E/Z 100/0, Buffer pH 10, Final pH 12, Mo. 1
[61] = Initial E/Z 100/0, Buffer pH 10, Final pH 12, Mo. 2
[62] = Initial E/Z 100/0, Buffer pH 10, Final pH 12, Mo. 3
[63] = Initial E/Z 100/0, Buffer pH 10, Final pH 12, Time 0

SMILES: CCC(=C(c1ccc(O)cc1)c1ccc(OCCN(C)C)cc1)c1ccccc1 [4-hydroxy tamoxifen, 1-[4-(2-N-dimethylaminoethoxy)phenyl]-1-(4-hydroxyphenyl)-2-phenylbut-1-ene]
- magnitude of the rate constants for the reversible isomerism as nominal concentration varied from 0.02% to 0.10% [1]: increased linearly
- effect of replacing ethanol by isopropyl alcohol and eliminating the isopropyl myristate on the reversible kinetics ([2]; 0.06% solutions): no significant effect
- effect of increasing the aqueous vehicle (buffer) concentration from 33.5% to 50% on the rate constant ([2]; 25° C. and 30° C.): greatly increases the rate constant
- effect of increasing the aqueous vehicle (buffer) concentration from 33.5% to 50% on the rate constant ([2]; 40° C.): less pronounced
- dependence of the isomerization rate on the dielectric constant of the solvent medium ([2]; water concentration in the medium increases): increased as the dielectric constant of the solvent medium is increased
- effect of pH on the equilibration process [3]: Low and high pH speed the equilibration process
- % E [3, 6]: 48.5%
- % Z [3, 6]: 51.5%
- % E [3, 7]: 52.5%
- % Z [3, 7]: 47.5%
- % E [3, 8]: 48.2%
- % Z [3, 8]: 51.8%
- % E [3, 9]: 48.0%
- % Z [3, 9]: 52.0%
- % E [3, 10]: 48.0%
- % Z [3, 10]: 52.0%
- % Z ([3]; Initial E/Z 37/63, Buffer pH 2.2, Final pH 4, Time 0): 37.1%
- % E [3, 11]: 51.0%
- % Z [3, 11]: 49.0%
- % E [3, 12]: 56.8%
- % Z [3, 12]: 43.2%
- % E [3, 13]: 49.4%
- % Z [3, 13]: 50.6%
- % E [3, 14]: 49.0%
- % Z [3, 14]: 51.0%
- % E [3, 15]: 48.5%
- % Z [3, 15]: 51.5%
- % E [3, 16]: 62.9%
- % Z [3, 16]: 37.1%
- % E [3, 17]: 58.0%
- % Z [3, 17]: 42.0%
- % E [3, 18]: 61.1%
- % Z [3, 18]: 38.9%
- % E [3, 19]: 55.8%
- % Z [3, 19]: 44.2%
- % E [3, 20]: 52.0%
- % Z [3, 20]: 48.0%
- % E [3, 21]: 50.4%
- % Z [3, 21]: 49.6%
- % E [3, 22]: 62.5%
- % Z [3, 22]: 37.5%
- % E [3, 23]: 56.9%
- % Z [3, 23]: 43.1%
- % E [3, 24]: 60.6%
- % Z [3, 24]: 39.4%
- % E [3, 25]: 54.2%
- % Z [3, 25]: 45.8%
- % E [3, 26]: 50.8%
- % Z [3, 26]: 49.2%
- % E [3, 27]: 49.9%
- % Z [3, 27]: 50.1%
- % E [3, 28]: 62.7%
- % Z [3, 28]: 37.3%
- % E [3, 29]: 49.0%
- % Z [3, 29]: 51.0%
- % E [3, 30]: 48.5%
- % Z [3, 30]: 51.5%
- % E [3, 31]: 49.0%
- % Z [3, 31]: 51.0%
- % E [3, 32]: 48.8%
- % Z [3, 32]: 51.2%
- % E [3, 33]: 49.0%
- % Z [3, 33]: 51.0%
- % E [3, 34]: 63.4%
- % Z [3, 34]: 36.6%
- % E [3, 35]: 45.9%
- % Z [3, 35]: 54.1%
- % E [3, 36]: 29.0%
- % Z [3, 36]: 71.0%
- % E [3, 37]: 47.4%
- % Z [3, 37]: 52.6%
- % E [3, 38]: 48.0%
- % Z [3, 38]: 52.0%
- % E [3, 39]: 47.7%
- % Z [3, 39]: 52.3%
- % Z ([3]; Initial E/Z 100/0, Buffer pH 2.2, Final pH 4, Time 0): 100.0%
- % E [3, 40]: 34.3%
- % Z [3, 40]: 65.7%
- % E [3, 41]: 12.5%
- % Z [3, 41]: 87.5%
- % E [3, 42]: 43.2%
- % Z [3, 42]: 56.8%
- % E [3, 43]: 48.1%
- % Z [3, 43]: 51.9%
- % E [3, 44]: 48.5%
- % Z [3, 44]: 51.5%
- % E [3, 45]: 0.0%
- % Z [3, 45]: 100.0%
- % E [3, 46]: 9.6%
- % Z [3, 46]: 90.4%
- % E [3, 47]: 2.9%
- % Z [3, 47]: 97.1%
- % E [3, 48]: 16.6%
- % Z [3, 48]: 83.4%
- % E [3, 49]: 31.3%
- % Z [3, 49]: 68.6%
- % E [3, 50]: 40.8%
- % Z [3, 50]: 59.2%
- % E [3, 51]: 0.0%
- % Z [3, 51]: 100.0%
- % E [3, 52]: 11.6%
- % Z [3, 52]: 88.4%
- % E [3, 53]: 3.4%
- % Z [3, 53]: 96.6%
- % E [3, 54]: 20.6%
- % Z [3, 54]: 79.4%
- % E [3, 55]: 36.4%
- % Z [3, 55]: 63.6%
- % E [3, 56]: 44.1%
- % Z [3, 56]: 55.9%
- % E [3, 57]: 0.0%
- % Z [3, 57]: 100.0%
- % E [3, 58]: 48.8%
- % Z [3, 58]: 51.2%
- % E [3, 59]: 48.3%
- % Z [3, 59]: 51.7%
- % E [3, 60]: 48.8%
- % Z [3, 60]: 51.2%
- % E [3, 61]: 48.8%
- % Z [3, 61]: 51.2%
- % E [3, 62]: 48.9%
- % Z [3, 62]: 51.1%
- % E [3, 63]: 0.0%
- % Z [3, 63]: 100.0%
- % E ([3]; Initial E/Z ratios of 37/63, Buffer pH 2.2, Final pH 4, Time 0): 62.9%
- % E ([3]; Initial E/Z ratios of 100/0, Buffer pH 2.2, Final pH 4, Time 0): 0.0%
- growth of both normal and cancerous breast cells [4]: inhibits the growth
- extent of isomerization ([5]; Katzenellenbogen et al., isomers initially 99% pure, after 2 days in tissue culture medium at 37° C.): 20%
- time within which spontaneous isomerization of Z- into E-4-hydroxy tamoxifen occurred ([5]; Malet et al.): 24-48 h
